The values below come from patent US20210094954A1, “PREPARATION METHODS AND APPLICATIONS OF 3,5-DISUBSTITUTED METHYLPYRAZOLO[1,5-A]PYRIMIDINE-7-HYDROXYLIC SALTS” (priority 2019, published 2021).

One test concerns Bacillus cereus 2. As to the kind of experiment: microbe, parasite or virus in culture. The format is cell-based. The note with it: Bacillus cereus, 2; 37° C., 24 hours; read-out: MIC values of in vitro antibacterial test results.
Test [1] has as its system Streptococcus pneumoniae M2. Nature of the test: microbe, parasite or virus in culture. The format is cell-based. Conditions: Streptococcus pneumoniae, M2; 37° C., 24 hours; read-out: MIC values of in vitro antibacterial test results.
The subject of test [2] is Enterococcus faecalis 29212. Nature of the test: microbe, parasite or virus in culture. The note with it: Enterococcus faecalis, 29212; 37° C., 24 hours; read-out: MIC values of in vitro antibacterial test results. The format is cell-based.
In test [3] the test system is Enterococcus faecalis F2518(VRE). As to the kind of experiment: microbe, parasite or virus in culture. Type of test: cell-based. The note with it: Enterococcus faecalis, VRE, 24 h, read-out: MIC values of in vitro antibacterial test results.
In test [4] the test system is Staphylococcus aureus 43300(MRSA). Nature of the test: microbe, parasite or virus in culture. The format is cell-based. Conditions: Staphylococcus aureus, MRSA.
The subject of another test is Bacillus subtilis 168. As to the kind of experiment: microbe, parasite or virus in culture. The format is cell-based. Conditions: Bacillus subtilis, 168; 37° C., 24 hours; read-out: MIC values of in vitro antibacterial test results.
In test [5] the test system is Streptococcus agalactia B group. As to the kind of experiment: microbe, parasite or virus in culture. Type of test: cell-based. Conditions: Streptococcus; 37° C., 24 hours; read-out: MIC values of in vitro antibacterial test results.
The test system of the next test is Clostridium perfringens. Nature of the test: microbe, parasite or virus in culture. The note with it: Clostridium perfringens, 24 h, read-out: MIC values of in vitro antibacterial test results. Type of test: cell-based.
Test [6] deals with Staphylococcus aureus 43300 (MRSA). As to the kind of experiment: antibacterial study in vivo, survival of infected kunming mice. The note with it: 30 days of observation.
Test [7] relates to Streptococcus pneumoniae 6303 (PRSP). As to the kind of experiment: microbe, parasite or virus in culture. Type of test: cell-based. The note with it: Streptococcus pneumoniae, PRSP, 24 h, read-out: MIC values of in vitro antibacterial test results.
For test [8], the system named is Streptococcus pneumoniae 10351. As to the kind of experiment: microbe, parasite or virus in culture. The format is cell-based. Conditions: Streptococcus pneumoniae, 10351; 37° C., 24 hours; read-out: MIC values of in vitro antibacterial test results.
Test [9] deals with Staphylococcus aureus 703(MRSA). Nature of the test: microbe, parasite or virus in culture. The format is cell-based. Conditions: Staphylococcus aureus, MRSA.
Test [10] has as its system Staphylococcus aureus 29231. Nature of the test: microbe, parasite or virus in culture. Type of test: cell-based. Conditions: Staphylococcus aureus, 29231; 37° C., 24 hours; read-out: MIC values of in vitro antibacterial test results.
In another test the test system is Oral Candida. Nature of the test: microbe, parasite or virus in culture. The format is cell-based. The note with it: Candida.
Test [11] has as its system Bacillus anthracis Bacillus 1. As to the kind of experiment: microbe, parasite or virus in culture. The format is cell-based. Conditions: Bacillus anthracis, 24 h, read-out: MIC values of in vitro antibacterial test results.
For test [12], the system named is F2518(VRE), Staphylococcus aureus resistant strain 43300(MRSA), 703 (MRSA), pneumococcal resistance bacteria 6303(PRSP). As to the kind of experiment: microbe, parasite or virus in culture. Type of test: cell-based. Conditions: read-out: MIC values (μM).
The subject of the next test is Diphtheria bacilli. Nature of the test: organism not typed. Type of test: cell-based. The note with it: 37° C., 24 hours; read-out: MIC values of in vitro antibacterial test results.
The next test deals with Peel fungus. Nature of the test: organism not typed. The note with it: 37° C., 24 hours; read-out: MIC values of in vitro antibacterial test results. The format is cell-based.
The mark [13] stands for this setting: 24 h, read-out: MIC values of in vitro antibacterial test results.
[14] abbreviates: 37° C., 24 hours, read-out: MIC values of in vitro antibacterial test results.

Read-outs that look alike come from different tables or passages of the source.

With `Cc1nn2c([O-])cc(-c3ccc(Oc4ccccc4)cc3)nc2c1-c1ccc(F)cc1F.[Na+]` [Compound 10, Sodium 3-(2,4-difluorophenyl)-2-methyl-5-(4-phenoxyphenyl)pyrazolo[1,5-α]pyrimidin-7-olate], the MIC in the test with Bacillus cereus 2 was less than 100 µg/mL; in test [1] it was less than 150 µg/mL; in test [2], less than 100 µg/mL; in test [3], less than 150 µg/mL; in test [4] (setting [13]), less than 150 µg/mL; in the test on Bacillus subtilis 168, less than 100 µg/mL. The MIC was less than 150 µg/mL in [5]; more than 150 µg/mL in the test with Clostridium perfringens; less than 150 µg/mL in [7]; less than 100 µg/mL in test [8]; less than 100 µg/mL in [9] (setting [13]); less than 100 µg/mL in [10]. In addition, the MIC was less than 150 µg/mL in the test on Oral Candida (setting [14]); more than 150 µg/mL in [11]; less than 100 µg/mL in test [12]; more than 150 µg/mL with Diphtheria bacilli; less than 150 µg/mL in the test with Peel fungus. In test [6] (dosage 25 mg/kg), the “Survival days” value was determined as 3.5 days.

Consider `Cc1nn2c([O-])cc(-c3ccc([N+](=O)[O-])cc3)nc2c1-c1ccc(F)cc1F.[Na+]` [Compound 3, Sodium 3-(2,4-difluorophenyl)-2-methyl-5-(4-nitrophenyl) pyrazolo[1,5-α]pyrimidin-7-olate], for which the MIC is less than 100 µg/mL in the test with Bacillus cereus 2; less than 100 µg/mL in [1]; less than 100 µg/mL in [2]; less than 150 µg/mL in test [3]; less than 50 µg/mL in [4] (setting [13]); less than 50 µg/mL in [4] (read-out: MIC values (μM)). The MIC was less than 100 µg/mL in the test with Bacillus subtilis 168; more than 150 µg/mL in test [5]; more than 150 µg/mL in the test with Clostridium perfringens; less than 100 µg/mL in test [7]; less than 100 µg/mL in test [8]; less than 50 µg/mL in [9] (setting [13]). Moreover, the MIC is less than 50 µg/mL in [9] (read-out: MIC values (μM)); less than 100 µg/mL in test [10]; more than 150 µg/mL in the test on Oral Candida (setting [14]); more than 150 µg/mL in test [11]; less than 100 µg/mL in test [12]; more than 150 µg/mL with Diphtheria bacilli. Moreover, the MIC with Peel fungus was more than 150 µg/mL. The “Survival days” value in [6] (dosage 30 mg/kg) is 4.0 days.

In the case of `Cc1nn2c([O-])cc(-c3ccc(S(N)(=O)=O)cc3)nc2c1-c1ccc(F)cc1F.[Na+]` [Compound 9, Sodium 3-(2,4-difluorophenyl)-2-methyl-5-(4-sulfamoylphenyl)pyrazolo[1,5-α]pyrimidin-7-olate], the MIC in the test on Bacillus cereus 2 was less than 150 µg/mL; in test [1] it was less than 100 µg/mL; in [2], less than 100 µg/mL; in [3] it was less than 150 µg/mL; in test [4] (setting [13]), less than 100 µg/mL; in the test on Bacillus subtilis 168, less than 100 µg/mL. For the same molecule, the MIC in test [5] is less than 150 µg/mL; with Clostridium perfringens, more than 150 µg/mL; in [7] it was less than 150 µg/mL; in test [8], less than 100 µg/mL; in [9] (setting [13]) it was less than 100 µg/mL; in [10] it was less than 100 µg/mL. For the same molecule, the MIC in the test on Oral Candida (read-out: MIC values (μM)) was less than 100 µg/mL; in the test with Oral Candida (setting [14]), less than 100 µg/mL; in [11], more than 150 µg/mL; in test [12], less than 100 µg/mL; in the test on Diphtheria bacilli it was more than 150 µg/mL; in the test with Peel fungus it was more than 150 µg/mL. Further, the “Survival days” value in [6] (dosage 25 mg/kg) is 3.0 days.

On to `Cc1nn2c([O-])cc(-c3ccc(Oc4ccccc4)nc3)nc2c1-c1ccc(F)cc1F.[Na+]` [Compound 30, Sodium 3-(2,4-difluorophenyl)-2-methyl-5-(6-phenoxypyridin-3-yl)pyrazolo[1,5-α]pyrimidin-7-olate], for which the MIC was less than 150 µg/mL in the test with Bacillus cereus 2; less than 100 µg/mL in [1]; less than 150 µg/mL in [2]; less than 150 µg/mL in [3]; less than 100 µg/mL in [4] (setting [13]); more than 150 µg/mL in the test on Bacillus subtilis 168. Besides, the MIC in test [5] was more than 150 µg/mL; in the test on Clostridium perfringens, more than 150 µg/mL; in test [7], more than 150 µg/mL; in [8], more than 150 µg/mL; in [9] (setting [13]), less than 150 µg/mL; in test [10], more than 150 µg/mL. Besides, the MIC is less than 100 µg/mL in the test with Oral Candida (read-out: MIC values (μM)); less than 100 µg/mL in the test with Oral Candida (setting [14]); more than 150 µg/mL in test [11]; less than 100 µg/mL in test [12]; more than 150 µg/mL with Diphtheria bacilli; less than 150 µg/mL in the test on Peel fungus. The “Survival days” value in test [6] (dosage 30 mg/kg) was 2.4 days.
